Structures are written as SMILES.

The values below come from patent US6638933B2, “Bicyclic imidazo-3-yl-amine derivatives” (Gruenenthal GmbH, priority 1999, dated 2003).

This assay concerns phenylquinone-induced writhing in mice. As to the kind of experiment: Analgesia test in the writhing test in mice (phenylquinone-induced writhing). It is filed as in vivo. To be noted: male NMRI mice, phenylquinone i.p. ten minutes after substance. On the procedure: Analgesia Test in the Writhing Test in Mice
The analgesic activity was investigated in the phenylquinone-induced writhing in mice (modified according to I. C. Hendershot, J. Forsaith, J. Pharmacol. Exp. Ther. 125, 237-240 (1959)). Male NMRI mice weighing 25-30 g were used. Groups of 10 animals per substance dose received 0.3 ml/mouse of a 0.02% aqueous solution of phenylquinone (phenylbenzoquinone, Sigma, Deisenhofen; solution prepared with the addition of 5% ethanol and storage in a water-bath at 45° C.) administered intraperitoneally ten minutes after intravenous or subcutaneous administration of the test substances. The animals were placed individually in observation cages. The number of pain-induced extension movements (so-called writhing reactions=straightening of the body with stretching out of the hind extremities) 5-20 minutes after administration of the phenylquinone was counted by means of a push-button counter. Animals which receive only physiological saline solution were also run as a control. The substances were tested in the standard dosage of 10 mg/kg intravenously or 21.5 mg/kg subcutaneously. The percentage inhibition (% inhibition) of the writhing reaction by a substance was calculated in accordance with the following equation: [formula]
On the technique in general: An intraperitoneal irritant provokes the stretching counted in writhing tests.

Take `CCOP(=O)(CNc1c(-c2ccccc2)nc2ccccn12)OCC` [Example 12, [(2-Phenyl-imidazo[1,2-a]pyridin-3-ylamino)-methyl]-phosphonic acid diethyl ester]: the “% inhibition of the writhing reaction at 10 mg/kg intravenously” value (“% inhibition … at 10 mg/kg intravenously” for short) (writhing counted 5-20 minutes) is reported as 90%.
As for `CC(C)(C)Nc1c(C(C)(C)C)nc2ccccn12` [Example 13, tert-Butyl-(2-tert-butyl-imidazo[1,2-a]pyridin-3-yl)-amine], the “% inhibition of the writhing reaction, intravenously, at 2.15 mg/kg” value (2.15 mg/kg (stated in cell) in the intravenous column) is on record as 86 at 2.15 mg/kg %.
With `c1coc(-c2nc3ccccn3c2NC2CCCCC2)c1` [Example 20, Cyclohexyl-(2-furan-2-yl-imidazo[1,2-a]pyridin-3-yl)-amine], the “% inhibition … at 10 mg/kg intravenously” value (writhing counted 5-20 minutes) came out at 43%.
On to `CC(C)(C)Nc1c(-c2cccnc2)nc2ccccn12` [Example 21, tert-Butyl-(2-pyridin-3-yl-imidazo[1,2-a]pyridin-3-yl)-amine], for which the “% inhibition of the writhing reaction at 21.5 mg/kg subcutaneously” value (21.5 mg/kg subcutaneously, writhing counted 5-20 minutes) is 80%.
Turning to `CC(C)(C)Nc1c(-c2ccccn2)nc2ccccn12` [Example 22, tert-Butyl-(2-pyridin-2-yl-imidazo[1,2-a]pyridin-3-yl)-amine], under “writhing counted 5-20 minutes”, the “% inhibition … at 10 mg/kg intravenously” value is given as 53%.
Still for that read-out and setting: the value for `CC(C)(C)Nc1c(-c2cccs2)nc2ccccn12` [Example 23, tert-Butyl-(2-thiophen-2-yl-imidazo[1,2-a]pyridin-3-yl)-amine] was 62%; that for `Cc1nc2ccccn2c1NC1CCCCC1` [Example 24, Cyclohexyl-(2-methyl-imidazo[1,2-a]pyridin-3-yl)-amine] was 56%.
